Experiment [1] concerns A2058 cells. As to the kind of experiment: A2058 cell proliferation assay. Type of experiment: cell-based. As to conditions: Homo sapiens, 96 hours, CellTiter-Glo. (In general: ATP-based viability assays read luminescence as a measure of living cells.)
In experiment [2] the test system is SK-MEL-3 cells. As to the kind of experiment: SK-MEL-3 cell proliferation assay. Type of experiment: cell-based. The note with it: Homo sapiens, SK-MEL3; SK-MEL-3 cells, 72 hours, CellTiter-Glo; read-out: SK-MEL-3 IC50.

Data on 17 compounds can be found in patent US20260265251A1 (priority 2023, published 2026).

For orientation: IC50 means the concentration needed to halve the response being measured. With `O=c1[nH]c2cc3cc(-c4ccc(C(F)F)nc4Cl)ccc3nc2[nH]1` [Example 35, 7-(2-chloro-6-(difluoromethyl)pyridin-3-yl)-1,3-dihydro-2H-imidazo[4,5-b]quinolin-2-one], the IC50 came to 5.2 nM in experiment [1] and 0.6 nM in experiment [2].
Taken in the same sequence, the figures for `O=c1[nH]c2cc3c(nc2[nH]1)CCN(c1cccc(C(F)(F)F)n1)C3` [Example 58, 7-(6-(trifluoromethyl)pyridin-2-yl)-1,3,5,6,7,8-hexahydro-2H-imidazo[4,5-b][1,6]naphthyridin-2-one] were 1.2 nM and 0.3 nM.
In the same order, the values of `O=c1[nH]c2cc3c(nc2[nH]1)CCC(c1cnn(C(F)F)c1Cl)C3` (racemic) [Example 64, 7-(5-chloro-1-(difluoromethyl)-1H-pyrazol-4-yl)-1,3,5,6,7,8-hexahydro-2H-imidazo[4,5-b]quinolin-2-one] are 0.4 nM and 0.08 nM.
In the same order, the values of `N#Cc1ccc(N2CCc3nc4[nH]c(=O)[nH]c4cc3C2)c(Cl)c1` [Example 22, 7-(2-chloro-4-cyanophenyl)-1,3,5,6,7,8-hexahydro-2H-imidazo[4,5-b][1,6]naphthyridin-2-one] are 11.9 nM and 1.6 nM.
`O=c1[nH]c2cc3cc(-c4onc(C(F)F)c4Cl)ccc3nc2[nH]1` [Example 34, 7-(4-chloro-3-(difluoromethyl)isoxazol-5-yl)-1,3-dihydro-2H-imidazo[4,5-b]quinolin-2-one]: the IC50 is 0.19 nM in experiment [1] and 0.09 nM in experiment [2].
With `O=c1[nH]c2cc3c(nc2[nH]1)CCN(c1ccc(F)cc1Cl)C3` [Example 21, 7-(2-chloro-4-fluorophenyl)-1,3,5,6,7,8-hexahydro-2H-imidazo[4,5-b][1,6]naphthyridin-2-one], the IC50 in experiment [1] came out at 38.4 nM; in experiment [2], 4.5 nM.
Taken in the same sequence, the figures for `O=c1[nH]c2cc3cc(-c4ccc(C(F)(F)F)nc4Cl)ccc3nc2[nH]1` [Example 17, 7-(2-chloro-6-(trifluoromethyl)pyridin-3-yl)-1,3-dihydro-2H-imidazo[4,5-b]quinolin-2-one] were 11 nM and 1.1 nM.
For `[2H]C([2H])([2H])Oc1nc(Cl)ccc1-c1ccc2nc3[nH]c(=O)[nH]c3cc2c1` [Example 28, 7-(6-chloro-2-(methoxy-d3)pyridin-3-yl)-1,3-dihydro-2H-imidazo[4,5-b]quinolin-2-one], the IC50 in experiment [1] was determined as 7.9 nM; in experiment [2], 1.1 nM.
Consider `O=c1[nH]c2cc3cc(-c4cnn(C(F)F)c4Br)ccc3nc2[nH]1` [Example 32, 7-(5-bromo-1-(difluoromethyl)-1H-pyrazol-4-yl)-1,3-dihydro-2H-imidazo[4,5-b]quinolin-2-one], for which the concentration for half-maximal inhibition (IC50) in experiment [1] worked out at 0.3 nM; in experiment [2], 0.05 nM.
Taken in the same sequence, the figures for `[2H]C([2H])([2H])Oc1ccc(-c2ccc3nc4[nH]c(=O)[nH]c4cc3c2)c(Cl)n1` [Example 27, 7-(2-chloro-6-(methoxy-d3)pyridin-3-yl)-1,3-dihydro-2H-imidazo[4,5-b]quinolin-2-one] were 20.2 nM and 3.1 nM.
For the compound `O=c1[nH]c2cc3c(nc2[nH]1)CC[C@H](c1cnn(C(F)F)c1Cl)C3` (single isomer, unassigned) [Example 64-A, (*S)-7-(5-chloro-1-(difluoromethyl)-1H-pyrazol-4-yl)-1,3,5,6,7,8-hexahdro-2H-imidazo[4,5-b]quinolin-2-one], the IC50 was 0.29 nM in experiment [1] and 0.04 nM in experiment [2].
As to `O=c1[nH]c2cc3cc(-c4cnn(C(F)F)c4Cl)ccc3nc2[nH]1` [Example 13, 7-(5-chloro-1-(difluoromethyl)-1H-pyrazol-4-yl)-1,3-dihydro-2H-imidazo[4,5-b]quinolin-2-one], the IC50 in experiment [1] came to 0.1 nM; in experiment [2], 0.03 nM.
For `O=c1[nH]c2cc3c(Cl)c(-c4ccc(F)cn4)ccc3nc2[nH]1` [Example 24, 8-chloro-7-(5-fluoropyridin-2-yl)-1,3-dihydro-2H-imidazo[4,5-b]quinolin-2-one], the IC50 in experiment [1] amounted to 2.7 nM; in experiment [2], 0.9 nM.
In the case of `O=c1[nH]c2cc3cc(-c4nn(C(F)F)cc4Cl)ccc3nc2[nH]1` [Example 15, 7-(4-chloro-1-(difluoromethyl)-1H-pyrazol-3-yl)-1,3-dihydro-2H-imidazo[4,5-b]quinolin-2-one], the IC50 in experiment [1] was found to be 3.9 nM; in experiment [2], 0.7 nM.
On to `O=c1[nH]c2cc3c(nc2[nH]1)CCN(c1ncc(F)cc1Cl)C3` [Example 23, 7-(3-chloro-5-fluoropyridin-2-yl)-1,3,6,7,8-hexahydro-2H-imidazo[4,5-b][1,6]naphthyridin-2-one], for which the IC50 in experiment [1] stood at 44.8 nM; in experiment [2], 4.4 nM.
Taken in the same sequence, the figures for `O=c1[nH]c2cc3cc(-c4ccc(C(F)F)cc4Cl)ccc3nc2[nH]1` [Example 36, 7-(2-chloro-4-(difluoromethyl)phenyl)-1,3-dihydro-2H-imidazo[4,5-b]quinolin-2-one] were 5.2 nM and 0.9 nM.
In the same order, the values of `O=c1[nH]c2cc3c(nc2[nH]1)CCN(c1ccc(C(F)(F)F)nc1Cl)C3` [Example 48, 7-(2-chloro-6-(trifluoromethyl)pyridin-3-yl)-1,3,5,6,7,8-hexahydro-2H-imidazo[4,5-b][1,6]naphthyridin-2-one] are 74.6 nM and 5.2 nM.
